For assay [1], the target named is Tyrosine-protein kinase ABL1 (Homo sapiens, UniProt P00519). In words: Selectivity interaction (Upstate Kinase Profiler service (Millipore)) EUB0000056c ABL1. Particulars: at 1 µM.
In assay [2] the target is T1, Serine/threonine-protein kinase pim-2 (Homo sapiens, UniProt Q9P1W9). In words: Selectivity interaction (ProQinase) EUB0000171b PIM2.
In assay [3] the target is Vascular endothelial growth factor receptor 1 (Homo sapiens) (UniProt P17948). Particulars: at 10 µM.
Assay [4] addresses Ribosomal protein S6 kinase alpha-4 (Homo sapiens) (UniProt O75676). Description: Selectivity interaction (Ambit KINOMEscan and KiNATiv profiling in Jurkat cells) EUB0000090b RPS6KA4. It is filed as cell-based. The following applies: at 1 µM.
For assay [5], the target named is T2, Serine/threonine-protein kinase Sgk3 (Homo sapiens) (UniProt Q96BR1).
T2 sequence (whole entry): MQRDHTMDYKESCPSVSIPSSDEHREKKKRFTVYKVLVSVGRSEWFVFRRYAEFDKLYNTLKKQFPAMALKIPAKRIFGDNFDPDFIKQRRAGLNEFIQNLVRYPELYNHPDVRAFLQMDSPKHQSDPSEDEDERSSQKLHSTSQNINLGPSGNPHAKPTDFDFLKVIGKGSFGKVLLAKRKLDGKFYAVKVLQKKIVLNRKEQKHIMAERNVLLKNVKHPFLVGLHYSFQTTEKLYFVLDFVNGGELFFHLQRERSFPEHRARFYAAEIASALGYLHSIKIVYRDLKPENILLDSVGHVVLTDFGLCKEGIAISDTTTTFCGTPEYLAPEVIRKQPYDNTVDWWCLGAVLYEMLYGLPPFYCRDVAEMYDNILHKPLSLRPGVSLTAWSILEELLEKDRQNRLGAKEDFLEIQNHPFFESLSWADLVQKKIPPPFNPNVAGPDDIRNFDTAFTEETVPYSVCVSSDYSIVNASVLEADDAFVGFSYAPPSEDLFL
In words: Selectivity interaction (Ambit KINOMEscan and KiNATiv profiling in Jurkat cells) EUB0000090b SGK3. It is filed as cell-based. The following applies: at 1 µM.

Assay [6] relates to Tyrosine-protein kinase ABL1 (Homo sapiens), P00519 [M351T]. The following applies: at 10 µM.
Assay [7] is described as follows: Selectivity interaction (KinomeScan (DiscoverX)) EUB0001079a CDK2H. The following applies: at 1 µM.
The target of assay [8] is Rho-associated protein kinase 1 (Homo sapiens) (UniProt Q13464). In words: Selectivity interaction (KinomeScan (DiscoverX)) EUB0001049a ROCK1. Particulars: at 1 µM.
The target in assay [9] is Serine/threonine-protein kinase 16 (Homo sapiens, UniProt O75716). In words: Selectivity interaction (Enzymatic assay) EUB0001550a STK16.
Assay [10] deals with Protein kinase C delta type (Homo sapiens) (UniProt Q05655). In words: Selectivity interaction (KinomeScan (DiscoverX)) EUB0000695a PRKCD. Particulars: at 100 nM.
The target in assay [11] is Homeodomain-interacting protein kinase 3 (Homo sapiens, UniProt Q9H422). Description: Selectivity interaction (KinomeScan (DiscoverX)) EUB0000695a HIPK3. Particulars: at 100 nM.
The target of assay [12] is Mitogen-activated protein kinase 8 (Homo sapiens, UniProt P45983). Description: Selectivity interaction (KinomeScan (DiscoverX)) EUB0000045b MAPK8.
Assay [13] addresses Cyclin-dependent kinase 5 (Homo sapiens, UniProt Q00535). In words: Selectivity interaction (KinomeScan (DiscoverX)) EUB0000666a CDK5. The following applies: at 10 µM.
Assay [14] deals with Serine/threonine-protein kinase MRCK alpha (Homo sapiens) (UniProt Q5VT25). Description: Selectivity interaction (Kinase panel (Z-LYTE Assay)) EUB0001632a CDC42BPA. The following applies: at 10 µM.
Assay [15] deals with Glycogen synthase kinase-3 beta (Homo sapiens, UniProt P49841). In words: Selectivity interaction (SelectScreen profiling (Invitrogen)) EUB0000607a GSK3B. The following applies: at 2 µM.
The target of assay [16] is Transient receptor potential cation channel subfamily M member 6 (Homo sapiens) (UniProt Q9BX84). In words: Selectivity interaction (KinomeScan (DiscoverX)) EUB0000607a TRPM6. The following applies: at 10 µM.
Assay [17] has as its target Serine/threonine-protein kinase WNK3 (Homo sapiens) (UniProt Q9BYP7). In words: Selectivity interaction (KinomeScan (DiscoverX)) EUB0000607a WNK3. Particulars: at 10 µM.
Assay [18] addresses Mitogen-activated protein kinase 3 (Homo sapiens, UniProt P27361). Description: Selectivity interaction (ActivX KiNativ screen (kinase selectivity in THP-1 cell lysates)) EUB0000639a MAPK3. Particulars: lysate. It is filed as subcellular.
The target in assay [19] is STE20-like serine/threonine-protein kinase (Homo sapiens, UniProt Q9H2G2). Description: Selectivity interaction (Competition-binding assay (DiscoverX)) EUB0000229b SLK.
Assay [20] concerns the target T1, Serine/threonine-protein kinase pim-2. Description: Selectivity interaction (KinomeScan (DiscoverX)) EUB0000229b PIM2. Particulars: at 10 µM.
Assay [21] addresses Sodium-dependent serotonin transporter (Homo sapiens, UniProt P31645). In words: Selectivity interaction (Serotonin transporter site assay, human recombinant ) EUB0000877a SLC6A4.
The target of assay [22] is G protein-coupled receptor kinase 5 (Homo sapiens, UniProt P34947). In words: Selectivity interaction (Kinase panel (DSF assay)) EUB0001559a GRK5.
The target of assay [23] is Cyclin-dependent kinase 7 (Homo sapiens, UniProt P50613). Description: Selectivity interaction (KinomeScan (DiscoverX)) EUB0000595a CDK7. The following applies: at 10 µM.
Assay [24] has as its target High affinity nerve growth factor receptor (Homo sapiens, UniProt P04629). In words: Selectivity interaction (KinomeScan (DiscoverX)) EUB0001619a NTRK1. The following applies: at 1 µM.
Assay [25] addresses Phosphatidylinositol 4,5-bisphosphate 3-kinase catalytic subunit gamma isoform (Homo sapiens) (UniProt P48736). Description: Selectivity interaction (ActivX KiNativ screen (ex vivo kinase selectivity in human PBMCs)) EUB0001619a PIK3CG. Format: cell-based. The following applies: PBMC, at 1 µM.

Sequence of Mitogen-activated protein kinase 3 (P27361 whole entry): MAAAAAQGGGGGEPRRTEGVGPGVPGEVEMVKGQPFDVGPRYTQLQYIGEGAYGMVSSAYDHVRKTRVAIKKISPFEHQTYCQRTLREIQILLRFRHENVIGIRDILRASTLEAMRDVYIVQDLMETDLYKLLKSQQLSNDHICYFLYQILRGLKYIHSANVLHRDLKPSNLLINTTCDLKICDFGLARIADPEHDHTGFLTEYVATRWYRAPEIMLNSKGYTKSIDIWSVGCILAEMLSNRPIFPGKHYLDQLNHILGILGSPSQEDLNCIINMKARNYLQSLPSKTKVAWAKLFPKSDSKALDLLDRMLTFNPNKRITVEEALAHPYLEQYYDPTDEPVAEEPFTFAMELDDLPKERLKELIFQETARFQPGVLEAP
T1 sequence (Q9P1W9 whole entry, looked up): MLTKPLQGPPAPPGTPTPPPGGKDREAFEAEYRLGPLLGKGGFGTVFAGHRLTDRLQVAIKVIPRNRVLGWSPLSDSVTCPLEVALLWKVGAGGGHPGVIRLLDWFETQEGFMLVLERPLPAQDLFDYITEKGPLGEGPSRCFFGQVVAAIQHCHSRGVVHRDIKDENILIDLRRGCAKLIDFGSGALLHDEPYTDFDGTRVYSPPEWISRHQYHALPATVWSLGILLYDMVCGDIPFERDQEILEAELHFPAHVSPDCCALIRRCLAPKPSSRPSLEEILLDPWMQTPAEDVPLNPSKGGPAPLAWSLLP
Sequence of Mitogen-activated protein kinase 8 (P45983 whole entry): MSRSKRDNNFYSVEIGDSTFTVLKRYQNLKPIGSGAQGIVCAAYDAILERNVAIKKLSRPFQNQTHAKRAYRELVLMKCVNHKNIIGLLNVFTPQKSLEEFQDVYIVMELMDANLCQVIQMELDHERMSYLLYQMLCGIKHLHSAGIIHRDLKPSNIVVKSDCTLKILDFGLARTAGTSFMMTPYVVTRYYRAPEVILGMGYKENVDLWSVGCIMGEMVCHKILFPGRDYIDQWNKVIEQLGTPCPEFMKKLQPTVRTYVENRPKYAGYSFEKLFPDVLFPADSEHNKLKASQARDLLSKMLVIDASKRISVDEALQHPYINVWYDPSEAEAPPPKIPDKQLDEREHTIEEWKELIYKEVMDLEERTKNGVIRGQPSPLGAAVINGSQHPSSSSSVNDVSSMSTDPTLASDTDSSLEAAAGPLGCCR
Sequence of Cyclin-dependent kinase 7 (P50613 whole entry): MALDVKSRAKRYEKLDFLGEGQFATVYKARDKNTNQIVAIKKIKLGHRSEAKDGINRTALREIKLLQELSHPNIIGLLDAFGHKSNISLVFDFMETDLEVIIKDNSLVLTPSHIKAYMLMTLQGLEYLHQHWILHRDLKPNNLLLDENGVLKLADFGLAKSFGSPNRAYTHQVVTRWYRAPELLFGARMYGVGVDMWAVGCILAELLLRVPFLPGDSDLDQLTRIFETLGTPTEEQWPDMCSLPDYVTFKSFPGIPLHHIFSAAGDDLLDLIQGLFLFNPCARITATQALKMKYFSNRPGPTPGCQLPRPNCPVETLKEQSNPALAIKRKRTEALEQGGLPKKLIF
Sequence of Ribosomal protein S6 kinase alpha-4 (Homo sapiens) (O75676 whole entry, looked up): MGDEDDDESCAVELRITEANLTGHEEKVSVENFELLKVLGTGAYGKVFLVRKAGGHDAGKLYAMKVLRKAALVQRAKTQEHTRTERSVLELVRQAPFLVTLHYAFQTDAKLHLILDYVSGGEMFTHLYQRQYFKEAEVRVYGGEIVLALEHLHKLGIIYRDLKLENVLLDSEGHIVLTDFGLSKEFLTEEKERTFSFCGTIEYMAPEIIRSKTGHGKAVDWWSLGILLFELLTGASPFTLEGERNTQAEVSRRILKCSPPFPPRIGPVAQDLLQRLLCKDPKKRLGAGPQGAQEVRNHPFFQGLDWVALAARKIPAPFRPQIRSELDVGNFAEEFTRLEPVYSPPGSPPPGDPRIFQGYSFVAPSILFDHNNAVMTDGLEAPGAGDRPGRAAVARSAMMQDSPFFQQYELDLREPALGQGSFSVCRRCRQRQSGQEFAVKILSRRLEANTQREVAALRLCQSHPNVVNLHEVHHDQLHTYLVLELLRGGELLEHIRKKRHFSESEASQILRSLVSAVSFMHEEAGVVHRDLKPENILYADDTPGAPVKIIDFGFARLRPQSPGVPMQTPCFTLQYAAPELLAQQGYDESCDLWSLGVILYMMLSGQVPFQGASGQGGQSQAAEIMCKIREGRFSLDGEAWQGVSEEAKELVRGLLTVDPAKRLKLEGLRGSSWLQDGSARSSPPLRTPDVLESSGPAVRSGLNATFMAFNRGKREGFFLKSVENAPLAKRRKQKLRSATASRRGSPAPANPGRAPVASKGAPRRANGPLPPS
Sequence of Phosphatidylinositol 4,5-bisphosphate 3-kinase catalytic subunit gamma isoform (Homo sapiens) (P48736 whole entry, looked up, canonical isoform): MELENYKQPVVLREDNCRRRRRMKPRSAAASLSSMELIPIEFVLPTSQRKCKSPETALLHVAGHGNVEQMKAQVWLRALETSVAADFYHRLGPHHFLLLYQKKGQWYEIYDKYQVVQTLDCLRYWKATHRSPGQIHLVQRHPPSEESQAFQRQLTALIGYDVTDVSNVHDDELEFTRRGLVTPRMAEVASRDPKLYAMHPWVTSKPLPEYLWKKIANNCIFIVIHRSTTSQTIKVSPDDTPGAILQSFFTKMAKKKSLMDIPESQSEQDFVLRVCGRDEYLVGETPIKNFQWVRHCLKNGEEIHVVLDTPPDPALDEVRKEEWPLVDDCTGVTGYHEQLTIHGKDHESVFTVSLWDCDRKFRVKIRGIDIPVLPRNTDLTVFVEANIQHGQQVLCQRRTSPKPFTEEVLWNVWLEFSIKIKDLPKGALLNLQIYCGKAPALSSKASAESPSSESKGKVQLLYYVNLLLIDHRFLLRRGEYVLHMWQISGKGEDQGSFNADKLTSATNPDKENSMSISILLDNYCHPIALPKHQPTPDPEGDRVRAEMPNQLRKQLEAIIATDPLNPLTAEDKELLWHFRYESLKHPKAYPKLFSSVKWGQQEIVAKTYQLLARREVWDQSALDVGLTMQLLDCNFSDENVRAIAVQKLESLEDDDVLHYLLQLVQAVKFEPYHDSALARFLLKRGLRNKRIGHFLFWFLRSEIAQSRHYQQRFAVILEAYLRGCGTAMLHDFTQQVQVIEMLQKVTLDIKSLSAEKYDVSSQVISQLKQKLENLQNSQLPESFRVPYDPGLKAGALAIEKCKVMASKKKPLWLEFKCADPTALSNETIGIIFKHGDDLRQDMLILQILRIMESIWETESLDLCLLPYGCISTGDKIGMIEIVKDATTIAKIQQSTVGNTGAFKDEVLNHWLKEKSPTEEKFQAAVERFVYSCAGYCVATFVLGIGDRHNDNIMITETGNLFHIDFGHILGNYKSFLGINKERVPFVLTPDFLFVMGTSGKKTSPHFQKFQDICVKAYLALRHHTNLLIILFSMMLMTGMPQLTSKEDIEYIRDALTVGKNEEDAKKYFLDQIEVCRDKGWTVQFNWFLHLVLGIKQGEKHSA
Sequence of Sodium-dependent serotonin transporter (P31645 whole entry): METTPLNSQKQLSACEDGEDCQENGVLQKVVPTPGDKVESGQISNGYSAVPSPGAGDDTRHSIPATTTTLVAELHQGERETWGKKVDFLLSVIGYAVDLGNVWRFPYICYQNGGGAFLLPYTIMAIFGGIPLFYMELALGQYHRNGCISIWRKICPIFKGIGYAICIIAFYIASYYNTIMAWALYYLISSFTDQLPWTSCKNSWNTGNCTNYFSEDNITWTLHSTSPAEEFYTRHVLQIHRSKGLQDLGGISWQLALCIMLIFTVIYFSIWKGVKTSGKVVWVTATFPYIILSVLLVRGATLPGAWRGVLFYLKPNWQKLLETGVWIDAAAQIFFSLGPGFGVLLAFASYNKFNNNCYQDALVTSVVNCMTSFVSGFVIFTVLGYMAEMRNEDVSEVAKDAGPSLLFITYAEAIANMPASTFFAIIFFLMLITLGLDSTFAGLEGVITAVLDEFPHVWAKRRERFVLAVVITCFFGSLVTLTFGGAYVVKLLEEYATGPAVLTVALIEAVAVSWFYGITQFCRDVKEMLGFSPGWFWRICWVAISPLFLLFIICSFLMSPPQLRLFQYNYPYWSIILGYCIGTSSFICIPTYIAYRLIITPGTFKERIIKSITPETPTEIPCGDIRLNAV
Sequence of G protein-coupled receptor kinase 5 (P34947 whole entry, looked up): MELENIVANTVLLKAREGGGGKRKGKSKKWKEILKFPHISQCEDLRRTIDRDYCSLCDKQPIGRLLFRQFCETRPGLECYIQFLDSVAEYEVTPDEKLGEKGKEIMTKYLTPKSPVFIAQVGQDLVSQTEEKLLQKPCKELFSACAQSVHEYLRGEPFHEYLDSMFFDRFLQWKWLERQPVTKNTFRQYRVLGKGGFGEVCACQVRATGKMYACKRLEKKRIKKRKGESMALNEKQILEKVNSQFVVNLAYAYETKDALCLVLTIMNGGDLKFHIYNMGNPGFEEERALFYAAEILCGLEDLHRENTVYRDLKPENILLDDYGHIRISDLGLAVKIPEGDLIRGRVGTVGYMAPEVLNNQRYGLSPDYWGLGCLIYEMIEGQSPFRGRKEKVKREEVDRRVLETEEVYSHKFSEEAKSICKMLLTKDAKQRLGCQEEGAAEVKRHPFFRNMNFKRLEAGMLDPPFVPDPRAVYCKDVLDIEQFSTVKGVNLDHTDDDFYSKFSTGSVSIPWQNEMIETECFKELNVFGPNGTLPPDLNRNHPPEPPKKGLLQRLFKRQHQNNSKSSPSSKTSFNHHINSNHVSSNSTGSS
Sequence of Glycogen synthase kinase-3 beta (P49841 whole entry, looked up): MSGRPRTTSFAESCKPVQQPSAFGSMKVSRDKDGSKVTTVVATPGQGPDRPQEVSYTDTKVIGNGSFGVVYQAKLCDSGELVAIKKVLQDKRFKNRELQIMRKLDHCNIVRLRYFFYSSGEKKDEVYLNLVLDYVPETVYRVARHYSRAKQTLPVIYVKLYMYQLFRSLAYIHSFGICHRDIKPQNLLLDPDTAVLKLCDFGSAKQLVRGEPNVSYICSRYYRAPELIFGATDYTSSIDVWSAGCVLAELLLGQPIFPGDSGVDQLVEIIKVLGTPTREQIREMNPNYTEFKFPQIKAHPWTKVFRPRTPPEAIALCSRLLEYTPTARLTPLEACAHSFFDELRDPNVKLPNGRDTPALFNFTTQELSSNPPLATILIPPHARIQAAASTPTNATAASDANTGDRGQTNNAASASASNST

In the case of `Cc1ccc(-c2ccc3c(ccc4sc5c(c43)NC[C@@H](C)NC5=O)n2)cn1`, the % of inhibition in assay [1] was 18%.

`C=CC(=O)Nc1cccc(C(=O)Nc2ccc(Nc3cc(-c4[nH]c(SC)nc4C)ccn3)cc2)c1`: the % of control in assay [2] (at 1 µM) turned out to be 101%; in assay [2] (at 5 µM), 69%.

`Cc1cc([C@@H](C)Nc2ccccc2C(=O)O)c2nc(N3CCOCC3)cc(=O)n2c1` [AZD-6482]: the % of control in [3] turned out to be 83%.

`CN(C)C/C=C/C(=O)Nc1ccc(C(=O)N2CCCC(Nc3ncc(Cl)c(-c4c[nH]c5ccccc45)n3)C2)cc1` (stereo unspecified): the % of control in assay [4] worked out at 100%; in [5], 84%.

`CCN(CC)CCCCNc1ncc2cc(-c3cc(OC)cc(OC)c3)c(NC(=O)NC(C)(C)C)nc2n1`: the % of control in assay [6] worked out at 100%.

Consider `Nc1cnc(N2CCc3cc(S(=O)(=O)Nc4c(F)cc(Cl)cc4F)cc(N4CCCC4=O)c32)nc1` [TP-020n], for which, in assay [7], the % of control is 100%.

With `COc1cc(Nc2nc(C)cc(-c3cnn4nc(OC)ccc34)n2)cc(C(F)(F)F)c1`, the % of control in [8] is 99%.

A word on the IC50: it is the point on the concentration scale where inhibition reaches its midpoint. `CN(C)CC#Cc1ccc2[nH]c3c(c2c1)-c1nc(N)ncc1CCC3` showed a half-inhibitory concentration (IC50) in assay [9] of 0.56 µM.

As for `Cc1cc(F)c(C(=O)Nc2cccc(-c3nncn3C(C)C)n2)cc1-n1cnc(C2CC2)c1`, the % of control in assay [10] and in assay [11] was 100% each time.

Regarding `C=CC(=O)Nc1cc(-n2c(=O)ccc3cnc4ccc(-c5ccc(NS(C)(=O)=O)cc5)cc4c32)ccc1C`, the % of control came to 93% in assay [12] (at 1 µM) and 14% in assay [12] (at 10 µM).

For the molecule `O=C(NOC[C@H](O)CO)c1ccc(F)c(F)c1Nc1ccc(I)cc1F`, in [13], the % of control came out at 100%.

On to `Cn1cc(-n2cnc3c(NCc4nc5cc(Cl)c(Cl)cc5[nH]4)nc(N4CCOCC4)nc32)cn1`, for which the % of control in assay [14] was -5.27%.

Turning to `CNC(=O)Nc1ccc(-c2nc(N3CC4CCC(C3)O4)c3cnn(C4CCC5(CC4)OCCO5)c3n2)cc1`, the % of inhibition in assay [15] was 1%. Also, the % of control in [16] and in [17] was 100% in each case.

As to `CC[C@@H]1[C@H](F)C(=O)N[C@@H]1COc1nccc2cc(C(N)=O)c(OC)cc12` [ZIMLOVISERTIB], the % of inhibition in assay [18] (at 0.01 µM) was 0.3%; in assay [18] (at 0.04 µM) it was 0.4%; in assay [18] (at 0.2 µM), 5%; in [18] (at 1 µM), 5.6%; in assay [18] (at 5 µM), -4.9%.

The Kd is the concentration at which binding is half-saturated. High values mean weaker binding, low ones tighter binding. On to `COc1cc(N(C)c2ccnc3ccc(C(F)(F)F)cc23)cc(OC)c1OC`, for which the equilibrium dissociation constant (Kd) in assay [19] was above 10 µM. Moreover, in [20], the % binding turned out to be 100%.

For `CCC(=O)N1CC[C@H](Nc2ncnc3c2CN(c2cnc(OC)c(C(F)(F)F)c2)CC3)C1` [LENIOLISIB], the IC50 in assay [21] is above 30 µM.

`CN(C(=O)c1cnn2cccnc12)c1cc2c(cc1N1CCOCC1)C(=O)N(C[C@@H](F)C(C)(C)O)C2` displayed a dTM in assay [22] of 0 K.

Turning to `COCC(=O)NC/C=C/c1ccc2ncnc(Nc3ccc(Oc4ccc(C)nc4)c(C)c3)c2c1` [CP-724714], the % of control in assay [23] came out at 100%.

Turning to `N#Cc1cccc(-c2c[nH]c3ncnc(N4CCOCC4)c23)c1`, the % of control in [24] amounted to 88%. Also, the % of inhibition in assay [25] is -6%.

The values are drawn from ChEMBL document CHEMBL5465560, “Selectivity Literature for EUbOPEN Chemogenomic Library” (2024).
